US20150272939A1, “Identification of Small Molecule Inhibitors of Jumonji AT-Rich Interactive Domain 1A (JARID1A) and 1B (JARID1B) Histone Demethylase” (Yale University, priority 2012, published 2015)

Key:
[1] = AlphaScreen counterscreen against bio-H3K4me2 peptide in the absence of enzyme (artifact signal); details: for Artifact Signal (percent): effect of the compound when incubated with bio-H3K4me2 peptide (counterscreen, no enzyme); for Artifact signal: effect of the compound when it is incubated with bio-H3K4me2 peptide: counterscreen, no enzyme;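 on all read-outs here: counterscreen run without enzyme against bio-H3K4me2 peptide to remove false positive hits from the JARID1 demethylase AlphaScreen screen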
JARID1B = target: T1, JARID1B (Homo sapiens, UniProt Q9UGL1); test: FLAG-JARID1B histone demethylase assay with AlphaScreen detection (HTS and dose response); type: biochemical; details: for Assay − Artifact Signal (percent): assay signal minus artifact signal; for inhibition at 20 µM: high-throughput screen, compound 20 μM, standard demethylase conditions (10 μM α-KG, 50 μM Fe (II)), read-out: Inhibitory effect (percent); for Assay Signal (percent) / Validation result of HTS active: effect of the compound in the JARID1B AlphaScreen demethylase assay: validation of HTS actives; for Assay Signal (percent): effect of compound in JARID1B AlphaScreen assay; for Validation result of HTS active: effect of the compound in the JARID1B AlphaScreen demethylase assay: total signal before subtraction of artifact signal;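 on Assay Signal (percent): compound tested at 20 µM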;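 on Assay − Artifact Signal (percent): compound tested at 20 µM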;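 on all read-outs here: FLAG-tagged JARID1B at 4 nM acting on a biotinylated H3K4me3 peptide, demethylation read by AlphaScreen luminescence, with hits checked against bio-H3K4me2 without enzyme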
T1 construct: The FLAG tagged full length JARID1B enzyme was expressed in Sf21 insect cells using FLAG-JARID1B baculoviruses; FLAG (N); made in house; host or cells: Sf21 insect cells (baculovirus)
T1 sequence (Q9UGL1 whole entry): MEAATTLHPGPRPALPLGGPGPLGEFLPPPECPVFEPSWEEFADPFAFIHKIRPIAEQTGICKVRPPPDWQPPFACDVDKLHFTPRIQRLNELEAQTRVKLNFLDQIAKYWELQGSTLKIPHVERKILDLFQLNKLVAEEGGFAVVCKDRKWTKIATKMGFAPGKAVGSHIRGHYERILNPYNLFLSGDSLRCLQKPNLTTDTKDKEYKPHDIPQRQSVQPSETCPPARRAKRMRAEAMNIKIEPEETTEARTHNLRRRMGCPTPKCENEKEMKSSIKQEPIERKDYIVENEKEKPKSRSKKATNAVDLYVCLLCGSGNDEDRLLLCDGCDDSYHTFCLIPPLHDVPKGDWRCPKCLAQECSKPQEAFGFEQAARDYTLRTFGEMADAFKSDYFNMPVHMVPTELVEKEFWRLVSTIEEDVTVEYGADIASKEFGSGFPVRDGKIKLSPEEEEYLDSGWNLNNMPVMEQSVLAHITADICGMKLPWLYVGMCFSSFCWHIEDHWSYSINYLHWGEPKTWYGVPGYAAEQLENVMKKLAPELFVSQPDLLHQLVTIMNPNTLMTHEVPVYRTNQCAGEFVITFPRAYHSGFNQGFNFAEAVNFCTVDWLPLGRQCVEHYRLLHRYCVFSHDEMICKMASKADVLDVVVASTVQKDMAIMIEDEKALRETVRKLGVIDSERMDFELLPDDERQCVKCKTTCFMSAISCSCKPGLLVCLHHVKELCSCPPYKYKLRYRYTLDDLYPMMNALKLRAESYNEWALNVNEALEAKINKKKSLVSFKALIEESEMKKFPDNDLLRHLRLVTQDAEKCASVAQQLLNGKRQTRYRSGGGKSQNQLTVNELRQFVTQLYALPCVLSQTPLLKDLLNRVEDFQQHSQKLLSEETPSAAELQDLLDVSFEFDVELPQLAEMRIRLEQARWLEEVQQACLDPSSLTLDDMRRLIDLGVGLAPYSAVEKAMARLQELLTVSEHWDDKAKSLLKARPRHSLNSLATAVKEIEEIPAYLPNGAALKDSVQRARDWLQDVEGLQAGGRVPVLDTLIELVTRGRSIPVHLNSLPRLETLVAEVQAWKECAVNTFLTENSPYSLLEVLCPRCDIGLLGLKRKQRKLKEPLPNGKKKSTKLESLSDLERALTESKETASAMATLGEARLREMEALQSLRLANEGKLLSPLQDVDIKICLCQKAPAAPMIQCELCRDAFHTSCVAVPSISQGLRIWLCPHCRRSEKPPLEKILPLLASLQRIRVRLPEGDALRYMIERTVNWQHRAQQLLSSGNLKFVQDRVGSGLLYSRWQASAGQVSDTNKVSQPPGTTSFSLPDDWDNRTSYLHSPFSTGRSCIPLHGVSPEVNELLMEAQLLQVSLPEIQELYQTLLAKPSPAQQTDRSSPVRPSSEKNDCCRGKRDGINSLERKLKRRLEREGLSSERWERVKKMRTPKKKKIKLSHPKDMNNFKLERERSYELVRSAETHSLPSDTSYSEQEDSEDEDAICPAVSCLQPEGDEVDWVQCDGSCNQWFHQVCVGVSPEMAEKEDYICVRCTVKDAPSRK

| Structure (SMILES) | Artifact Signal (percent) [1] [%] | Assay − Artifact Signal (percent) (JARID1B) [%] | inhibition at 20 µM (JARID1B) [%] | Assay Signal (percent) (JARID1B) [%] | Artifact signal: effect of the compound when it is incubated with bio-H3K4me2 peptide [1] | Validation result of HTS active: effect of the compound in the JARID1B AlphaScreen demethylase assay (JARID1B) |
| --- | --- | --- | --- | --- | --- | --- |
| CCOC(=O)C(CCOc1cccc(CC)c1)C(=O)OCC [YU151071] | −3.73 | 9.86 | 96.7 | 6.13 | – | – |
| COc1ccc(C2CC(c3cccnc3)Nc3nnnn32)cc1 (stereo not drawn) [YU151128] | −2.19 | 8.40 | 59.7 | 6.20 | – | – |
| O=C(O)CSc1nc2cc(F)c(N3CCOCC3)cc2[nH]1 [YU151409] | – | – | 45.1 | – | −0.23 | 4.03 |
| COc1cc(C(=S)N2CC(C)OC(C)C2)cc(OC)c1O (stereo not drawn) [YU151441] | −3.82 | 16.81 | 30.8 | 12.98 | – | – |
| Oc1cccc(C(=S)N2CCN(Cc3ccccc3)CC2)c1 [YU151559] | 9.22 | 18.39 | 36.9 | 27.61 | – | – |
| O=C(Cn1c(=O)oc2ccccc21)Nc1cccc([N+](=O)[O-])c1 [YU151591] | 1.65 | 14.61 | 35 | 16.26 | – | – |
| COC(=O)Nc1ccc(S(=O)(=O)N2CCCCCC2)cc1 [YU151614] | – | – | 85.5 | – | −4.92 | −1.67 |
| CC(=O)Oc1c([N+](=O)[O-])cc2c(c1Br)CCCC2 [YU151714] | 1.24 | 12.20 | 32.3 | 13.44 | – | – |
| O=C(O)c1cc2cc(Cc3ccccc3Cl)ccc2oc1=O [YU151859] | – | – | 84.4 | – | 5.15 | 9.33 |
| Cc1ccc(NC(=O)CC2SC3=NCCCN3C2=O)c(C)c1 (stereo not drawn) [YU152183] | – | – | 39.4 | – | 1.46 | 6.95 |
| Cc1ccc(C)c(NS(=O)(=O)c2ccc3[nH]c(=O)oc3c2)c1 [YU152226] | −6.03 | 11.28 | 60.1 | 5.25 | – | – |
| Cc1nn2c(=O)[nH]c3sc4c(c3c2nc1=O)CC(C)(C)OC4 [YU152236] | 5.71 | 43.69 | 51.6 | 49.40 | – | – |
| Nc1c([N+](=O)[O-])cc(F)c(N2CCOCC2)c1Br [YU152451] | – | – | 74.6 | – | −3.09 | 2.82 |
| O=C(NCc1ccccn1)c1ccc(NC(=O)c2ccco2)cc1 [YU152560] | – | – | 41.5 | – | −6.86 | −1.53 |
| COC(=O)C1=C(C)NC(=O)C1(Nc1nccs1)C(F)(F)F (stereo not drawn) [YU152562] | – | – | 39.4 | – | −15.40 | −8.43 |
| Cc1cccc(OCC(=O)Nc2ccccc2OC(F)F)c1C [YU152564] | – | – | 99.6 | – | 4.29 | 9.13 |
| CCOc1cc(Cl)c(S(=O)(=O)n2ccnc2)cc1Cl [YU152583] | – | – | 45.9 | – | −4.74 | 1.32 |

| Structure (SMILES) | Artifact Signal (percent) [1] [%] | Assay − Artifact Signal (percent) (JARID1B) [%] | inhibition at 20 µM (JARID1B) [%] | Assay Signal (percent) (JARID1B) [%] | Artifact signal: effect of the compound when it is incubated with bio-H3K4me2 peptide [1] | Validation result of HTS active: effect of the compound in the JARID1B AlphaScreen demethylase assay (JARID1B) |
| --- | --- | --- | --- | --- | --- | --- |
| COc1cc(C=O)cc(Cl)c1OCc1cccc([N+](=O)[O-])c1 [YU152587] | – | – | 98.2 | – | −2.67 | −1.32 |
| CCCCOc1ccc(NC(=O)CSc2nnnn2C)cc1 [YU152624] | – | – | 37.7 | – | −4.45 | −1.90 |
| COc1ccccc1NC(=O)COc1ccc(CO)cc1Cl [YU152649] | – | – | 99 | – | 0.22 | 6.08 |
| N#Cc1c(NC(=O)c2cnn3cccnc23)sc2c1CCCC2 [YU152893] | – | – | 84.5 | – | 1.62 | 9.21 |
| CN1C(=O)c2ccc(NC(=O)c3ccc4c(c3)OCO4)cc2C1=O [YU152920] | – | – | 96.7 | – | −2.69 | 0.53 |
| C=CCN(CC=C)C(=S)Nc1sc(C)c(C)c1C(=O)OC [YU153003] | 6.76 | 16.80 | 65.6 | 23.56 | – | – |
| CCCSc1nc2c3c(sc2c(=O)[nH]1)CC(C)(CC)OC3 (stereo not drawn) [YU153031] | 0.09 | 9.19 | 97 | 9.27 | – | – |
| O=C(NCc1ccccc1)c1ccc(N2CCCC2)c([N+](=O)[O-])c1 [YU153074] | 5.15 | 11.37 | 102 | 16.52 | – | – |
| O=C(O[C@@H]1Cc2c(O)cc(O)cc2O[C@@H]1c1ccc(O)c(O)c1)c1cc(O)c(O)c(O)c1 [YU153085, EPICATECHIN MONOGALLATE, reference compound] | 85.87 | 8.72 | – | 94.59 | – | – |
| O=C(O[C@@H]1Cc2c(O)cc(O)cc2O[C@@H]1c1cc(O)c(O)c(O)c1)c1cc(O)c(O)c(O)c1 [YU153090, EPIGALLOCATECHIN-3- MONOGALLATE, reference compound] | – | – | – | – | 90.25 | 95.83 |
| C#CCOc1c(Cl)cc(C(=S)N2CCOCC2)cc1OC [YU153110] | −3.09 | 37.96 | 45.2 | 34.87 | – | – |
| Cc1cc(C(=O)Nc2c(C)n(C)n(-c3ccccc3)c2=O)c(C)o1 [YU153128] | 4.15 | 8.37 | 101 | 12.52 | – | – |
| O=C(NC1=NC(=O)C(F)(C(F)(F)F)S1)NC1CCCCC1 (stereo not drawn) [YU153281] | 1.95 | 23.51 | 55.3 | 25.46 | – | – |
| CCOc1c(CNc2ccc(N3CCCC3)cc2)cccc1OC [YU153287] | 17.14 | 11.21 | 54.2 | 28.35 | – | – |
| O=c1c(O)c(-c2ccc(O)c(O)c2)oc2c(O[C@@H]3O[C@H](CO)[C@@H](O)[C@H](O)[C@H]3O)c(O)cc(O)c12 [YU153353, GOSSYPIN, reference compound] | 61.80 | 37.81 | – | 99.61 | – | – |
| O=c1c2cc(O)c(O)cc2oc2cc(O)c([C@@H]3O[C@H](CO)[C@@H](O)[C@H](O)[C@H]3O)c(O)c12 [YU153356, MANGIFERIN, reference compound] | 76.59 | 21.62 | – | 98.21 | – | – |
| Fc1cccc(-c2nn3c(-c4ccccc4Cl)nnc3s2)c1 [YU153729] | −3.54 | 14.96 | 33.9 | 11.41 | – | – |
